Like-named read-outs stand apart in the source and are kept apart here.
Key:
K562 cells = test: K562 cell culture and growth assay, 6 day MTT; assay type: cell-based, human; details: K562, 6 days, 4 or more experiments
Description: This example describes the procedure used for cell culture and growth assays. Human leukemia, Philadelphia-chromosome-positive CML cell line K562 was obtained from ATCC (Rockville, Md.). Cells were cultured in RPMI medium containing 10% fetal calf serum, 2 mM glutamine, 100 units/ml of penicillin and 100 μg/ml streptomycin Cells (2×10^3 cells/well) were incubated with increasing concentrations of compounds of the present invention dissolved in DMSO in a final volume of 200 μl in 96-well plates. Control cells were incubated with medium containing identical concentrations of the DMSO solvent. Growth of K562 cells was quantitated after 6 days by ability of living cells to reduce the yellow dye 3-(4,5-dimethylthiazolyl)-2,5-diphenyltetrazolium bromide (MTT) to a blue formazan product. Further information concerning this procedure is provided by Mossman T., “Rapid Colorimetric Assay for Cellular Growth and Survival—Application to Proliferation and Cytotoxicity Assays,” J. Immunol. Methods 1983, 65:55-63, which is incorporated herein by reference.

p210^bcr-abl = molecular target: T1, p210^bcr-abl (Homo sapiens, UniProt P00519); test: Inhibition of in vitro auto-phosphorylation of p210^bcr-abl, immune-complex kinase assay; assay type: biochemical; details: immune complex kinase assay, 3 experiments, read-out: Enzyme Assays IC50 (μM) p210bcl-abl in vitro phosphorylation
T1 construct: immune complexes containing ^32P-labeled p210^bcr-abl were collected on protein Sepharose beads; BCR (N-terminal part of the breakpoint cluster region protein, natural fusion partner); endogenous in cells; host or cells: K562 cells (lysate, immunoprecipitated on Protein A-Sepharose); the other entry of the earlier key: BCR (P11274, Breakpoint cluster region protein)
Description: Inhibition of in vitro auto-phosphorylation of p210^bcr-abl in immune-complex kinase assays were conducted as follows. K562 cell line cells were washed twice in […]. The washed cells were lysed in PLC lysis buffer 150 mM HEPES (pH 7.5), 150 mM NaCl, 10% (v/v) glycerol, 1% (v/v) Triton X-100, 1.5 mM MgCl2, 1 mM EGTA. 10 μg/ml leupeptin, 10 μg/ml aprotinin, 1 mM sodium orthovanadate. 10 mM sodium pyrophosphate, 100 mM sodium fluoride and 1 mM phenylmethyl sulfonyl fluoride| Cell lysates were centrifuged at 100,000 g for 15 minutes and the supernatant collected. Protein concentrations of the clarified supernatants were determined by the Bradford Protein Assay, and the same quantity of protein was immunoprecipitated from control (vehicle-treated) and drug-treated cells. Cell lysates were incubated and gently rocked at 4° C. for 4 hours overnight with antibodies. Immune complexes were collected by incubation with Protein A-Sepharose beads (Pharmacia, Piscataway N.J.) and immune complexes (beads) were washed three times with HNTG buffer [20 mM HEPES (pH 7.5), 10% glycerol, 0.1% Triton X-100, 150 mM NaCl and 1 mM sodium orthovanadate] to remove unbound material. Bound proteins were boiled for 5 minutes in 2×SDS sample buffer (63 mM Tris-HCl, ph 6.8; 10% glycerol; 2% SDS; 0.0025% bromophenol blue: and […] 2 mercaptoethanol) prior to SDS-PAGE. Proteins were resolved on 4-20% gradient mini gels from Novex Experimental Technology (San Diego, Calif.).
After SDS-PAGE, proteins were electrophoretically transferred onto Immobilon polyvinylidene difluoride (PVDF) membranes (Millipore, Bedford, Mass.) at 250 mA for 4 hours at 4° C. using 2× Tris glycine transfer buffer (50 mM Tris, glycine), 20% methanol and 0.1% SDS. Residual binding sites on the membrane were blocked by incubation in TTS (20 mM Tris pH 7.4, 0.9% NaCl and 0.05% Tween 20) containing 3% BSA overnight at 4° C. or for 4 hours at room temperature. Blots were incubated for 1-1.5 hours with TTS containing 0.3% BSA with 1 μg/ml of mouse anti-P-Tyr, 2 μg/ml of mouse anti-Grb2 or 1 μg/ml of rabbit anti-She antibody. Blots were washed three times for 6 minutes each with TTS containing 0.3% BSA and probed with a 1:1000 dilution of rabbit anti-mouse antibody or directly with [^125I]Protein A (Amersham, Arlington Heights, Ill.) in blocking solutions. Proteins were visualized by autoradiography (exposed for 1-2 days at −70° C.).
The p210^bcr-abl, protein immunoprecipitates were washed twice with HTNG buffer Immunoprecipitates were washed once with 50 mM Tris (pH 7.0) and distributed to each reaction in 20 μl of 20 mM PIPES [piperazine-N,N′-bis(ethanesulfonic acid)] (pH 7.0)−20 mM MnCl2. Then, 10 μl of compounds made according to the present invention at desired concentrations from working stock solution prepared in 20 mM PIPEs (pH 7.0)−20 mM MnCl2 were added to each reaction tube. Reactions were initiated with the addition of 10 μl of [γ-^33P]ATP (10 μCi per sample, 3000 Ci/mmol; Amersham), incubated for 20 minutes at 30° C., stopped by addition of 10 μl of 5×SDS sample buffer, heated at 100° C. for 5 minutes, and analyzed on 4-20% SDS-PAGE and by autoradiography.
To assess the effect of drugs added in vitro on the state of p210^bcr-abl in the immune complexes, K562 cells were labeled with ^32P, lysed in PLC buffer and immune complexes containing ^32P-labeled p210^bcr-abl were collected on protein Sepharose beads and beads were washed four times with HNTG buffer. Immune complexes were divided into several tubes in 30 μl of PLC buffer in the presence of compounds made as described herein.

[1] = tested on: panel of approximately 60 different human tumor cell lines; test: National Cancer Institute drug screen, mean-graph parameters; assay type: cell-based; details: mean over cell line panel, two days exposure; for GI50: Homo sapiens, 48 h
Description: Compounds of the present invention also have been subjected to the drug screening procedure employed by the National Cancer Institute for the screening of drugs having possible anticancer utility. The screening procedure uses a diverse, disease-oriented panel consisting of approximately 60 different human tumor cell lines organized into disease-specific subpanels. The compounds of the present invention were tested over a range of concentrations for cytotoxic or growth-inhibitory effects against cell lines comprising the panel. The eight subpanels represented diverse histologies (leukemias, melanomas, and tumors of the lung, colon, kidney, breast, ovary, and brain).
Compounds of the present invention were tested over a period of two days. During this period the cells were continuously exposed to various concentrations of the compounds tested. The tests produced individual dose-responses, one for each cell line (i.e. one for each example), and the data were represented in dose-response curves. The data provided by these dose response curves were summarized using a mean-graph format.
To produce data for the mean-graph format, a compound concentration that produced a target level response was calculated for each cell line. Three different response parameters were evaluated. The first response parameter was the growth inhibition (“GI50”). GI50 is the concentration of compounds made according to the present invention that produced an apparent 50% decrease in the number of tumor cells relative to the appropriate control (not exposed to the compounds of the present invention) at the end of the incubation period.
The second response parameter was the total growth inhibition (“TGI”). TGI is the concentration at which the number of tumor cells remaining at the end of the incubation period substantially equal the number of tumor cells existing at the start of the incubation period.
The third response parameter was the lethal concentration (“LC50”) LC50 is the concentration of compounds made according to the present invention that caused an apparent 50 percent reduction in the number of tumor cells […] at the start of the incubation period.
In a typical GI50 mean graph, the relative position of the vertical reference line along the horizontal concentration axis was obtained by averaging the negative log10GI50 values for all the cell lines tested against the compound. Horizontal bars were then plotted for the individual negative log10GI50 values of each cell line relative to the vertical reference line. The GI50 graph thus provided a characteristic fingerprint for the compound, displaying the individual cell lines that are proportionately more sensitive than average (bars extending to the right of the reference line) or proportionately less sensitive than average (bars extending to the left of the reference line). The length of a bar was proportional to the difference between the log10GI50 value obtained with the particular cell line and the mean (represented by the vertical reference line).
Similar mean graphs were prepared for the TGI and LC50 response parameters.

[2] = Homo sapiens, 144 h, Table 10, mean ± S.E., read-out: IC50 (μM) 6dMTT
[3] = Table 10, read-out: Tumor Cell Mean log GI50 (converted)
[4] = Table 9, mean ± S.E., read-out: IC50 (μM) 6dMTT
[5] = Homo sapiens, 144 h, Table 8, mean+S.E., read-out: IC50 (μM) 6 dMTT
[6] = Homo sapiens, 144 h, Table 9, mean ± S.E., read-out: IC50 (μM) 6dMTT
[7] = Table 9, read-out: Tumor cell Mean log GI50 (converted)

T1 sequence (P00519 with tags, fused parts or gaps): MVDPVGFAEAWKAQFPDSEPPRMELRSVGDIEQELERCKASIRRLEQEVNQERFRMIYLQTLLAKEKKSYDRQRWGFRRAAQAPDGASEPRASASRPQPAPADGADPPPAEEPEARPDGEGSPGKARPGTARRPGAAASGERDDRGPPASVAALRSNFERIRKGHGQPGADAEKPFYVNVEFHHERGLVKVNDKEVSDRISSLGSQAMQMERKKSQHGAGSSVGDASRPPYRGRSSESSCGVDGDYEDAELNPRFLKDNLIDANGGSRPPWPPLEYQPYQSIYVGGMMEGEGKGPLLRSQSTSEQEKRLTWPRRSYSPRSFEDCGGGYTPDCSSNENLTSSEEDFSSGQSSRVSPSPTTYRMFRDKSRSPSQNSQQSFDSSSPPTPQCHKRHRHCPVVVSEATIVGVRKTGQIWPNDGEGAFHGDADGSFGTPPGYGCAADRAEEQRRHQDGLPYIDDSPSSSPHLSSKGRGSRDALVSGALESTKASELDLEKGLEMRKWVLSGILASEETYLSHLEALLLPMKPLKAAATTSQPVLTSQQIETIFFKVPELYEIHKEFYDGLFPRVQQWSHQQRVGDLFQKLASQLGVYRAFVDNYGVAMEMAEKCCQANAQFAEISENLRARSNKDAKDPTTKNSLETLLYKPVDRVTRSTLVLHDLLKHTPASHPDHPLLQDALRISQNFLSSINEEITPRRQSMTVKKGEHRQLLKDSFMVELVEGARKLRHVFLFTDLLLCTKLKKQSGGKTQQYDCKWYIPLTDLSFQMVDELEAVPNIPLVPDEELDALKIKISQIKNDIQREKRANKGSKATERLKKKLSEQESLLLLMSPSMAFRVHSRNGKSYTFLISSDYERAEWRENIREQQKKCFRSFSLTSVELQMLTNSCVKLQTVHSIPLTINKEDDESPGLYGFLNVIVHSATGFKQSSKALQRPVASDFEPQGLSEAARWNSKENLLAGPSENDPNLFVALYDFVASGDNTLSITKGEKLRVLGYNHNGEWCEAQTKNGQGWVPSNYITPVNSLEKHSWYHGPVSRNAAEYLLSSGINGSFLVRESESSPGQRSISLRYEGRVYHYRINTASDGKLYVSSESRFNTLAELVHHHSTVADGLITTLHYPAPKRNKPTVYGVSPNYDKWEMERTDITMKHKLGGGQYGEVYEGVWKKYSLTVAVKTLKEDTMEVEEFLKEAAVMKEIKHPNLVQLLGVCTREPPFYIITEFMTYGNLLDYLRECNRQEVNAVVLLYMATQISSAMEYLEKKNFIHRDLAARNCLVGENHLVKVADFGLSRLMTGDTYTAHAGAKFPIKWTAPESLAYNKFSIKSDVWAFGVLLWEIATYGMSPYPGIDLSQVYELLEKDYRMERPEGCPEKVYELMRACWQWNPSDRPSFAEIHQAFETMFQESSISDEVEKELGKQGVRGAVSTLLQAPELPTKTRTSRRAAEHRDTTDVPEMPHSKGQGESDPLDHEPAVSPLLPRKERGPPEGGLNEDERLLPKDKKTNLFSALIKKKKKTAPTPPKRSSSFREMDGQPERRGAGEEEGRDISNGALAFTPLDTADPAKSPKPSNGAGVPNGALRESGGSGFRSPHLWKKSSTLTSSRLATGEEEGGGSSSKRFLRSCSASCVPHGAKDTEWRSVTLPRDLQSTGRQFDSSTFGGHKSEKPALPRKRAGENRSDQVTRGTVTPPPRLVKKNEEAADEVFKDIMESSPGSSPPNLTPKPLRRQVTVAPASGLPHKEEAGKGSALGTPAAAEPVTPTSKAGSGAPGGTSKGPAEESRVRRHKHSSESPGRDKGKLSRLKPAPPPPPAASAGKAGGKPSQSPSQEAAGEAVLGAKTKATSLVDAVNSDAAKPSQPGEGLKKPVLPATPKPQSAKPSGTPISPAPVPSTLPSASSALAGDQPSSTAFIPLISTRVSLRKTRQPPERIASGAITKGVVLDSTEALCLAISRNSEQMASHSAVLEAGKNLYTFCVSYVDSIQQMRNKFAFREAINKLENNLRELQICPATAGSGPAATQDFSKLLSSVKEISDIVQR

| IC50 (p210^bcr-abl; Table 9, mean ± S.E.) [µM] | IC50 (K562 cells; [5]) [µM] | IC50 (p210^bcr-abl; Table 8, mean+S.E.) [µM] | SMILES | Tumor Cell Mean log TGI ([1]; Table 9) | Tumor Cell Mean log GI50 ([1]; Table 8) | Tumor Cell Mean log TGI ([1]; Table 8) | further results |
| --- | --- | --- | --- | --- | --- | --- | --- |
| – | 14.3 | 0.57 | Oc1ccc(O)c(CNc2ccc(C(O)C(F)(F)F)cc2)c1 (centres unmarked) [CH(OH)CF3 / H / H, 4′-(trifluoromethylethanol)-1′-N-2,5-dihydroxybenzylamine] | – | −4.82 | −4.34 | – |
| – | 20.9 | 4.23 | NC(=O)c1ccc(NCc2cc(O)ccc2O)cc1 [CONH2 / H / H] | – | −4.53 | −4.26 | – |
| – | 18.2 | 2.36 | CC(C)N(C(=O)c1ccc(NCc2cc(O)ccc2O)cc1)C(C)C [CON[CH(CH3)2]2 / H / H, 4′-diisopropylbenzamide-N-2,5-dihydroxybenzylamine] | – | −4.88 | −4.36 | – |
| – | – | 2.9 | COC(=O)c1ccc(NCc2cc(O)ccc2O)cc1 [COOCH3 / H / H, reference compound] | – | −4.95 | −4.52 | IC50 (K562 cells; Table 8, mean+S.E., read-out: IC50 (μM) 6 dMTT): 16.6 µM |
| – | 17.7 | 6.44 | COC(=O)c1ccc(NCc2cc(O)ccc2O)cc1O [COOCH3 / OH / H] | – | −5.23 | −4.70 | – |
| – | 41.9 | 18.5 | O=C(O)c1ccc(NCc2cc(O)ccc2O)cc1 [COOH / H / H] | – | −4.96 | −4.60 | – |
| – | 13 | 1.03 | CC(=O)c1ccc(NCc2cc(O)ccc2O)cc1 [Compound 17, 4′-acetophenone-1′-N-2,5-dihydroxybenzylamine] | – | −4.72 | −4.25 | – |

Continued, compound first:

| SMILES | IC50 (p210^bcr-abl; Table 9, mean ± S.E.) [µM] | IC50 (K562 cells; [5]) [µM] | IC50 (p210^bcr-abl; Table 8, mean+S.E.) [µM] | Tumor Cell Mean log TGI ([1]; Table 9) | Tumor Cell Mean log GI50 ([1]; Table 8) | Tumor Cell Mean log TGI ([1]; Table 8) | further results |
| --- | --- | --- | --- | --- | --- | --- | --- |
| COC(=O)c1ccc(CCc2cc(O)ccc2O)cc1 | – | – | – | – | – | – | IC50 (K562 cells; [2]): 18.5 ± 5.62 µM; IC50 (p210^bcr-abl; Table 10, mean ± S.E.): 2.64 ± 0.99 µM; GI50 [1, 3]: 10 µM; Tumor Cell Mean log TGI ([1]; Table 10): −4.43 |
| CC(C)OC(=O)c1ccc(CCc2cc(O)c(Br)cc2O)cc1 | – | – | – | – | – | – | IC50 (K562 cells; [2]): 20 ± 0.7 µM; IC50 (p210^bcr-abl; Table 10, mean ± S.E.): 5.77 ± 0.53 µM; GI50 [1, 3]: 7.59 µM; Tumor Cell Mean log TGI ([1]; Table 10): −4.50 |
| O=C(O)c1ccc(CCc2cc(O)ccc2O)cc1O | – | – | – | – | – | – | IC50 (K562 cells; Table 10, mean ± S.E., read-out: IC50 (μM) 6dMTT): 33.4 ± 4.8 µM; IC50 (p210^bcr-abl; Table 10, mean ± S.E.): 13 ± 1.03 µM; Tumor Cell Mean log GI50 ([1]; Table 10): −4.06; Tumor Cell Mean log TGI ([1]; Table 10): −4.01 |
| COC(=O)c1cc(NCc2cc(O)cc(Br)c2O)ccc1Cl [4′-chloro-5′-methylbenzoate-1′-N-3-bromo-2,5-dihydroxybenzylamine] | 3.56 ± 0.53 | – | – | −4.43 | – | – | IC50 (K562 cells; [4]): 8.9 ± 0.5 µM; Tumor Cell Mean log GI50 ([1]; Table 9): −4.86 |
| NC(=O)c1ccc(NCC2=CC(=O)C=CC2=O)cc1 [CONH2 / H / 2,5-quinoyl] | 5.1 ± 0.3 | – | – | −4.31 | – | – | IC50 (K562 cells; [4]): 21.7 ± 2.27 µM; Tumor Cell Mean log GI50 ([1]; Table 9): −4.59 |
| CC(C)(C)OC(=O)c1ccc(NCC2=CC(=O)C=CC2=O)cc1 [COOC(CH3)3 / H / 2,5-quinoyl] | 25.9 ± 9.02 | – | – | −4.67 | – | – | IC50 (K562 cells; [6]): 25.4 ± 1.88 µM; GI50 [1, 7]: 8.13 µM |
| O=C1C=CC(=O)C(CNc2ccc(C(=O)OCc3ccccc3)cc2)=C1 [COOCH2—C6H6 / H / 2,5-quinoyl] | 8.75 ± 1.25 | – | – | −4.78 | – | – | IC50 (K562 cells; [6]): 22.8 ± 18 µM; GI50 [1, 7]: 5.01 µM |
| COC(=O)c1ccc(NCC2=CC(=O)C=CC2=O)cc1 [COOCH3 / H / 2,5-quinoyl] | 15.9 ± 2.91 | – | – | −4.8 | – | – | IC50 (K562 cells; [6]): 15.1 ± 1.28 µM; GI50 [1, 7]: 2.51 µM |
| COC(=O)c1ccc(NCC2=CC(=O)C=CC2=O)cc1O [Compound 20, 3′-hydroxy-4′-methylbenzoate-1′-N-p-quinone-2-methyl amine] | 5.15 ± 1.01 | – | – | −4.36 | – | – | IC50 (K562 cells; [6]): 17 ± 0.3 µM; GI50 [1, 7]: 17 µM |
| CC(C)OC(=O)c1ccc(NCC2=CC(=O)C=CC2=O)cc1 [Compound 21, 4′-isopropylbenzoate-1′-N-p-quinone-2-methyl amine] | 13.7 ± 5.78 | – | – | −4.55 | – | – | IC50 (K562 cells; [6]): 17.4 ± 1 µM; GI50 [1, 7]: 26.9 µM |
